Reference: ChEMBL document CHEMBL3885861, “Open TG-GATES”

Species on record: Rattus norvegicus
Test: Open TG-GATES - Regimen: Single
Format: toxicity, organism-based, Sprague-Dawley
Parameters: regimen Single, gender Male, age 6 weeks
Conditions: in vivo, po, route gavage; for APTT / Bas / Eos / Fbg / Hb / Ht / Lym / MCHC / MCV / Mono / PT / Plat / RBC / Ret / WBC: tissue Blood; for KIDNEY_L / KIDNEY_R / KIDNEY_TOTAL: tissue Kidney; for LIVER: tissue Liver; for ALP / ALT / AST / BUN / CRE / Ca / Cl / DBIL / IP / LDH / Na / PL / RALB / TBIL / TC / TG / TP / gamma-GTP: tissue Plasma
[1] = 0 mg/kg, 3 h, dose level Control
[2] = 0 mg/kg, 6 h, dose level Control
[3] = 0 mg/kg, 9 h, dose level Control
[4] = 0 mg/kg, 24 h, dose level Control

## CC(C)N(CCC(C(N)=O)(c1ccccc1)c1ccccn1)C(C)C (centres undefined) [DISOPYRAMIDE]
[1]
  TERMINAL_BW: 207.1 g
  APTT: 21.7 s
  Bas: 0%
  Eos: 1%
  Fbg: 318.8 mg/dL
  Hb: 13.2 g/dL
  Ht: 41.1%
  Lym: 77.6%
  MCHC: 32.1%
  MCV: 64.4 fL
  Mono: 2.6%
  PT: 15.8 s
  Plat: 117.3 x10_4/uL
  RBC: 638.6 x10_4/ul
  Ret: 8%
  WBC: 84.7 x10_2/uL
  KIDNEY_L: 0.9 g
  KIDNEY_R: 0.9 g
  KIDNEY_TOTAL: 1.9 g
  LIVER: 9.6 g
  ALP: 1747.4 IU/L
  ALT: 51 IU/L
  AST: 79.8 IU/L
  BUN: 12.4 mg/dL
  CRE: 0.2 mg/dL
  Ca: 10.5 mg/dL
  Cl: 108.2 meq/L
  DBIL: 0 mg/dL
  IP: 8.5 mg/dL
  LDH: 193.8 IU/L
  Na: 141.8 meq/L
  PL: 122.6 mg/dL
  RALB: 2.9 g/dL
  TBIL: 0.006 mg/dL
  TC: 69 mg/dL
  TG: 45.4 mg/dL
  TP: 5.4 g/dL
  gamma-GTP: 1.4 IU/L
[2]
  TERMINAL_BW: 210.2 g
  APTT: 22.4 s
  Bas: 0%
  Eos: 0.4%
  Fbg: 310.2 mg/dL
  Ht: 39.9%
  Lym: 80.8%
  MCHC: 32%
  MCV: 64.8 fL
  Mono: 2.6%
  PT: 15.7 s
  Plat: 122.8 x10_4/uL
  RBC: 615.4 x10_4/ul
  Ret: 7.8%
  WBC: 110.6 x10_2/uL
  KIDNEY_L: 1 g
  KIDNEY_R: 1 g
  KIDNEY_TOTAL: 1.9 g
  LIVER: 9.3 g
  ALT: 42.4 IU/L
  AST: 73.2 IU/L
  BUN: 13 mg/dL
  CRE: 0.1 mg/dL
  Ca: 10.8 mg/dL
  Cl: 105.6 meq/L
  DBIL: 0 mg/dL
  IP: 9.3 mg/dL
  LDH: 164.8 IU/L
  Na: 140.6 meq/L
  PL: 135 mg/dL
  RALB: 2.9 g/dL
  TBIL: 0.004 mg/dL
  TC: 72.6 mg/dL
  TG: 91 mg/dL
  TP: 5.5 g/dL
  gamma-GTP: 1.2 IU/L
[3]
  TERMINAL_BW: 204.9 g
  APTT: 22.5 s
  Bas: 0%
  Eos: 0.4%
  Fbg: 300.8 mg/dL
  Hb: 12.9 g/dL
  Ht: 40%
  Lym: 80.6%
  MCHC: 32.3%
  MCV: 62.7 fL
  Mono: 2.6%
  PT: 15.9 s
  Plat: 113.2 x10_4/uL
  RBC: 638.2 x10_4/ul
  Ret: 7.5%
  WBC: 90.9 x10_2/uL
  KIDNEY_L: 1 g
  KIDNEY_R: 1 g
  KIDNEY_TOTAL: 2 g
  LIVER: 8.8 g
  ALP: 1336.4 IU/L
  ALT: 41.6 IU/L
  AST: 72.8 IU/L
  BUN: 13.4 mg/dL
  CRE: 0.1 mg/dL
  Ca: 10.5 mg/dL
  Cl: 106.6 meq/L
  DBIL: 0.002 mg/dL
  IP: 9.2 mg/dL
  LDH: 146.8 IU/L
  Na: 141.6 meq/L
  PL: 116.8 mg/dL
  RALB: 2.9 g/dL
  TBIL: 0.002 mg/dL
  TC: 62.4 mg/dL
  TG: 61.4 mg/dL
  TP: 5.4 g/dL
  gamma-GTP: 1.2 IU/L
[4]
  TERMINAL_BW: 222.5 g
  APTT: 21.9 s
  Bas: 0%
  Eos: 1%
  Fbg: 317 mg/dL
  Hb: 13.2 g/dL
  Ht: 40.9%
  Lym: 82.6%
  MCHC: 32.3%
  MCV: 65 fL
  Mono: 2.4%
  PT: 16 s
  Plat: 117 x10_4/uL
  RBC: 629.4 x10_4/ul
  Ret: 7.9%
  WBC: 80.5 x10_2/uL
  KIDNEY_L: 1 g
  KIDNEY_R: 1 g
  KIDNEY_TOTAL: 2 g
  LIVER: 10.6 g
  ALP: 1631 IU/L
  ALT: 53.6 IU/L
  AST: 78.6 IU/L
  BUN: 17 mg/dL
  CRE: 0.2 mg/dL
  Ca: 10.7 mg/dL
  Cl: 105 meq/L
  DBIL: 0 mg/dL
  IP: 7.8 mg/dL
  LDH: 192.4 IU/L
  PL: 143.2 mg/dL
  RALB: 3 g/dL
  TBIL: 0 mg/dL
  TC: 71.8 mg/dL
  TG: 104 mg/dL
  TP: 5.5 g/dL
  gamma-GTP: 2 IU/L
40 mg/kg, 3 h, dose level Low
  TERMINAL_BW: 208.4 g
  APTT: 23 s
  Bas: 0%
  Eos: 1%
  Fbg: 313.4 mg/dL
